Source: patent publication US20240024488A1, “COMPOUNDS AND USES THEREOF” (Foghorn Therapeutics Inc., priority 2020, published 2024)

Tests used:
HiBit-BRM fusion protein = biological target: T1, HiBit-BRM fusion protein (Homo sapiens, UniProt P51531); assay: HiBiT-BRM cell-based degradation assay (Nano-Glo HiBiT Lytic Detection, 24 h); settings: HeLa cell line expressing HiBiT-BRM; for DC50: read-out: BRM HiBit Degradation IC50
T1 construct: expressed in transfected cells
Description: (§1) Procedure: A stable HeLa cell line expressing HiBiT-BRM was generated. On day 0, 5000 cells were seeded in 40 μL of media into each well of 384-well cell culture plates. On day 1, cells were treated with 120 nL DMSO or 120 nL of 3-fold serially DMSO-diluted compounds (10 points in duplicate with 30 μM as final top dose). Subsequently plates were incubated for 24 h in a standard tissue culture incubator and equilibrated at room temperature for 15 minutes. Nano-Glo HiBiT Lytic Detection System (Promega N3050) reagent was freshly prepared and 20 ul was added to each well. Upon addition of this LgBit-containing reagent, the HiBiT and LgBiT proteins associate to form the luminescent NanoBiT luciferase. The plates were shaken for 10 minutes at room temperature and the bioluminescence read using an EnVision plate reader (PerkinElmer).
(§2) The degradation % was calculated using the following formula: % degradation=100%−100%×(LumSample−LumLC)/(LumHC−LumLC). DMSO treated cells are employed as High Control (HC) and 2 μM of a known BRM/BRG1 degrader standard treated cells are employed as Low Control (LC).

[1] = biological target: T2, HiBit-BRG1 fusion protein (Homo sapiens, UniProt P51532); assay: HiBiT-BRG1 cell-based degradation assay (Nano-Glo HiBiT Lytic Detection, 24 h); settings: HeLa cell line expressing HiBit-BRG1 and LgBit; for Dmax: read-out: BRG1 HiBit Degradation Maximum (%); for DC50: read-out: BRMG1 HiBit Degradation IC50
T2 construct: expressed in transfected cells
T2 sequence (P51532 whole entry, the tested form may be a part): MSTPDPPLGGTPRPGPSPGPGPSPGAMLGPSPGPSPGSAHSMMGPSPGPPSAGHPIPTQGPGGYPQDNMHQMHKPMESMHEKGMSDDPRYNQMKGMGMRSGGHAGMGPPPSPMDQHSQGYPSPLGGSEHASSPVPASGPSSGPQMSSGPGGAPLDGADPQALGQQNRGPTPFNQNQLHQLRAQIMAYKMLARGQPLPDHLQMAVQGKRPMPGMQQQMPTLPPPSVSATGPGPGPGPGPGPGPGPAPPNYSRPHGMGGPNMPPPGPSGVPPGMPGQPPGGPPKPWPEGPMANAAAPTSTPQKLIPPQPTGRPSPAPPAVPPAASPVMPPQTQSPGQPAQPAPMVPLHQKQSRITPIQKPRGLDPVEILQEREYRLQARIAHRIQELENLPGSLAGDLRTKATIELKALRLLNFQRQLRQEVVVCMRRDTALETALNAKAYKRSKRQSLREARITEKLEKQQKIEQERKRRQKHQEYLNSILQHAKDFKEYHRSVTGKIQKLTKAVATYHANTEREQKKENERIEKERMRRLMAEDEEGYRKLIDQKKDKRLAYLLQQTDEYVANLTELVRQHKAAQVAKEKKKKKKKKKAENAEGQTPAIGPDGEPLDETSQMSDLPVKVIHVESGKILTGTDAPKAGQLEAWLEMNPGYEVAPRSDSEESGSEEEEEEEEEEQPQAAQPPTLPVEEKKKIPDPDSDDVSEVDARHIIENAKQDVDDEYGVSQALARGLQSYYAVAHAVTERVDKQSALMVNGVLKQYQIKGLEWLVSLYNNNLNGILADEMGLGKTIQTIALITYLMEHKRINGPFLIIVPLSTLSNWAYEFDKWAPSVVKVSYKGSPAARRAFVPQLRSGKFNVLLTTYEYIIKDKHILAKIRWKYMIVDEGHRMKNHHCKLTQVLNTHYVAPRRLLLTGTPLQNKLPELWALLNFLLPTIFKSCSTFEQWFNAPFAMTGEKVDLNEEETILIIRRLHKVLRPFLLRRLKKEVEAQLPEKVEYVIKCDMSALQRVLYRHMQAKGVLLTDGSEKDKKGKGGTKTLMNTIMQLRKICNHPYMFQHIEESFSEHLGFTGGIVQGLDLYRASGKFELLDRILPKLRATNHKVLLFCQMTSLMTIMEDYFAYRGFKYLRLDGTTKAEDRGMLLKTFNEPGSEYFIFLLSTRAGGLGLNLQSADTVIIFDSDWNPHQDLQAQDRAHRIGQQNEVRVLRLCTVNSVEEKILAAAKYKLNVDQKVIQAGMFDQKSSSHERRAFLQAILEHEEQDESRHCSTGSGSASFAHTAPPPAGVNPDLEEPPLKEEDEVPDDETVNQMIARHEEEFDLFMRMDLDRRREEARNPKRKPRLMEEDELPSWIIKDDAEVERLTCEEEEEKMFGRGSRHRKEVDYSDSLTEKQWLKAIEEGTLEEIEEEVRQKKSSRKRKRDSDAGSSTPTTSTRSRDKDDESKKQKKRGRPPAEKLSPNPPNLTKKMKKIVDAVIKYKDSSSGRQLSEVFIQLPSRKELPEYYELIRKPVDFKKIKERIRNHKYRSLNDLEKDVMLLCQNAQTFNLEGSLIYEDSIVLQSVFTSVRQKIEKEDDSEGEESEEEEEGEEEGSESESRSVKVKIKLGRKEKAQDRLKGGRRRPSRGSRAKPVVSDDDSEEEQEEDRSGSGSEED
Description: as §1, with “On day 1, cells were treated with 120 nL DMSO or 120 nL of 3-fold serially DMSO-diluted compounds (10 points in duplicate with 30 μM as final top dose).” left out
For measurement of BRG1 degradation, a stable HeLa cell line expressing HiBit-BRG1 and LgBit was generated. The same protocol as above was then followed.
as §2

T1 sequence (P51531 whole entry, the tested form may be a part): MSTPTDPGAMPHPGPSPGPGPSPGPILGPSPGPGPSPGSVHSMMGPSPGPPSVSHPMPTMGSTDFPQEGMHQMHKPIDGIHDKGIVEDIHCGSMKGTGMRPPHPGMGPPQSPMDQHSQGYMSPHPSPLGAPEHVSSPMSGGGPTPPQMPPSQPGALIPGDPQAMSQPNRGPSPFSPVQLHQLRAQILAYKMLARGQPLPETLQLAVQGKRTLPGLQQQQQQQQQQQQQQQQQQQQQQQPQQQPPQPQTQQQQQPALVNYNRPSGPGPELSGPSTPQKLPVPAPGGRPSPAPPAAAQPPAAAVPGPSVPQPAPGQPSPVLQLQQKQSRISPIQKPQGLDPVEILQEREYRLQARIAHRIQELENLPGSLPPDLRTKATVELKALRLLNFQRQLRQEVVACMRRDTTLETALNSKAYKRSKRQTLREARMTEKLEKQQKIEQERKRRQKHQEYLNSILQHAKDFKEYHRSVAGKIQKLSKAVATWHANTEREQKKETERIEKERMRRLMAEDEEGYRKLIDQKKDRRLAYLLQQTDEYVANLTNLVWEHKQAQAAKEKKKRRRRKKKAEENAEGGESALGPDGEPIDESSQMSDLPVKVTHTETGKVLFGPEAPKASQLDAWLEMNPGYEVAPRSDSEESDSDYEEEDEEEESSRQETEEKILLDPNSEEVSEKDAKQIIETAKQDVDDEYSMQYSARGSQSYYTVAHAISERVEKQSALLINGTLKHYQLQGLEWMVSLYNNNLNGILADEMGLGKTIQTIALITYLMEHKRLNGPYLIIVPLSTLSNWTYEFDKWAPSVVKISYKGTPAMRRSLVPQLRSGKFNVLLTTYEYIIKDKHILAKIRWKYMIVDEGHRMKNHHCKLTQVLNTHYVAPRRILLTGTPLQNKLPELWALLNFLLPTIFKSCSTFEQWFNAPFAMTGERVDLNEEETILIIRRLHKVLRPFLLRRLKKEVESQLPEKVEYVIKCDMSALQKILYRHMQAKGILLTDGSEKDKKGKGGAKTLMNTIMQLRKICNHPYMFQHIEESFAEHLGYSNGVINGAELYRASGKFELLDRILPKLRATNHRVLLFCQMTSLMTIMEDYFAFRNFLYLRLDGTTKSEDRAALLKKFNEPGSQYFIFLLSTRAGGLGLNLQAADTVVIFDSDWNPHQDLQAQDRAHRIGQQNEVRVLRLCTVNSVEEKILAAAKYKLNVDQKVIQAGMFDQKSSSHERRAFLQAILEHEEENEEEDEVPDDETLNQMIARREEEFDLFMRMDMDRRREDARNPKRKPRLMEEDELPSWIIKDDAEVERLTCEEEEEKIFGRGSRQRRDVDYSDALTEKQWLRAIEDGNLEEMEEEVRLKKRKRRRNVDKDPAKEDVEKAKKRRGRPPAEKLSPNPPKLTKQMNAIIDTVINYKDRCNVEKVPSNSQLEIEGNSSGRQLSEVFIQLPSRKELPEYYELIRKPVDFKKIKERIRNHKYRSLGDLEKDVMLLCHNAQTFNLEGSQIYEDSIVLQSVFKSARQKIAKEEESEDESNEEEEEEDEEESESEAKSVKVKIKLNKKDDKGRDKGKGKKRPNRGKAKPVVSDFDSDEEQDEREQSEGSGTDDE

Row | Structure (SMILES) | DC50 (HiBit-BRM fusion protein) [nM] | Dmax [1] [%] | DC50 [1] [nM] | BRM HiBit Degradation Maximum (%) (HiBit-BRM fusion protein)
1 | Cc1ncsc1-c1ccc([C@H](C)NC(=O)[C@@H]2C[C@@H](O)CN2C(=O)[C@@H](c2cc([C@H]3CC[C@H](c4cnc(N5CCC(c6c[nH]c7nnc(-c8ccccc8O)cc67)CC5)nc4)CC3)no2)C(C)C)cc1 (racemic) [Compound 67, (2S,4R)-4-hydroxy-N-[(1S)-1-[4-(4-methyl-1,3-thiazol-5-yl)phenyl]ethyl]-1-[(2R)-3-methyl-2-{3-[(1r,4r)-4-(2-{4-[3-(2-hydroxyphenyl)-7H-pyrrolo[2,3-c]pyridazin-5-yl]piperidin-1-yl}pyrimidin-5-yl)cyclohexyl]-1,2-oxazol-5-yl}butanoyl]pyrrolidine-2-carboxamide] | < 10 | > 75 | > 10 | A (“A” indicates maximum degradation ≥ 75%)
2 | Cc1ncsc1-c1ccc([C@H](C)NC(=O)[C@@H]2C[C@@H](O)CN2C(=O)[C@@H](c2cc([C@H]3CC[C@@H](c4cnc(N5CCC(c6c[nH]c7nnc(-c8ccccc8O)cc67)CC5)nc4)CC3)no2)C(C)C)cc1 (racemic) [Compound 68, (2S,4R)-4-hydroxy-N-[(1S)-1-[4-(4-methyl-1,3-thiazol-5-yl)phenyl]ethyl]-1-[(2R)-3-methyl-2-{3-[(1s,4s)-4-(2-{4-[3-(2-hydroxyphenyl)-7H-pyrrolo[2,3-c]pyridazin-5-yl]piperidin-1-yl}pyrimidin-5-yl)cyclohexyl]-1,2-oxazol-5-yl}butanoyl]pyrrolidine-2-carboxamide] | > 10 | < 50 |  | A (“A” indicates maximum degradation ≥ 75%)
3 | Cc1ncsc1-c1ccc([C@H](C)NC(=O)[C@@H]2C[C@@H](O)CN2C(=O)[C@@H](c2cc(OCCNC(=O)[C@H]3C[C@@]4(Cc5cc(-c6ccccc6O)nnc5N4)C3)no2)C(C)C)cc1 (racemic) [Compound 70, (1R,3s)-N-(2-((5-((R)-1-((2S,4R)-4-hydroxy-2-(((S)-1-(4-(4-methylthiazol-5-yl)phenyl)ethyl)carbamoyl)pyrrolidin-1-yl)-3-methyl-1-oxobutan-2-yl)isoxazol-3-yl)oxy)ethyl)-3′-(2-hydroxyphenyl)-5′,7′-dihydrospiro[cyclobutane-1,6′-pyrrolo[2,3-c]pyridazine]-3-carboxamide] | > 100 | < 50 |  | B (“B” indicates maximum degradation ≥ 50%)
4 | Cc1ncsc1-c1ccc([C@H](C)NC(=O)[C@@H]2C[C@@H](O)CN2C(=O)[C@@H](c2cc(OCCNC(=O)[C@H]3C[C@]4(Cc5cc(-c6ccccc6O)nnc5N4)C3)no2)C(C)C)cc1 (racemic) [Compound 71, (1S,3r)-N-(2-((5-((R)-1-((2S,4R)-4-hydroxy-2-(((S)-1-(4-(4-methylthiazol-5-yl)phenyl)ethyl)carbamoyl)pyrrolidin-1-yl)-3-methyl-1-oxobutan-2-yl)isoxazol-3-yl)oxy)ethyl)-3′-(2-hydroxyphenyl)-5′,7′-dihydrospiro[cyclobutane-1,6′-pyrrolo[2,3-c]pyridazine]-3-carboxamide] | > 100 | < 50 |  | A (“A” indicates maximum degradation ≥ 75%)
5 | Cc1ncsc1-c1ccc([C@H](C)NC(=O)[C@@H]2C[C@@H](O)CN2C(=O)[C@@H](c2cc(N3CCC(C(=O)NC(=N)N4CCc5[nH]c6nnc(-c7ccccc7O)cc6c5C4)CC3)no2)C(C)C)cc1 (racemic) [Compound 74, 1-{5-[(2R)-1-[(2S,4R)-4-hydroxy-2-{[(1S)-1-[4-(4-methyl-1,3-thiazol-5-yl)phenyl]ethyl]carbamoyl}pyrrolidin-1-yl]-3-methyl-1-oxobutan-2-yl]-1,2-oxazol-3-yl}-N-[12-(2-hydroxyphenyl)-4,8,10,11-tetraazatricyclo[7.4.0.0^{2,7}]trideca-1(13),2(7),9,11-tetraene-4-carboximidoyl]piperidine-4-carboxamide] | > 10 | < 50 |  | A (“A” indicates maximum degradation ≥ 75%)

Second part, led by results:

Row | DC50 (HiBit-BRM fusion protein) [nM] | Dmax [1] [%] | DC50 [1] [nM] | Structure (SMILES) | BRM HiBit Degradation Maximum (%) (HiBit-BRM fusion protein)
6 | > 10 | < 50 |  | Cc1ncsc1-c1ccc([C@H](C)NC(=O)[C@@H]2C[C@@H](O)CN2C(=O)[C@@H](c2cc(C3CCN(C(=O)[C@H]4C[C@@]5(Cc6cc(-c7ccccc7O)nnc6N5)C4)CC3)no2)C(C)C)cc1 (racemic) [Compound 69, (2S,4R)-4-hydroxy-1-((R)-2-(3-(1-((1R,3s)-3′-(2-hydroxyphenyl)-5′,7′-dihydrospiro[cyclobutane-1,6′-pyrrolo[2,3-c]pyridazine]-3-carbonyl)piperidin-4-yl)isoxazol-5-yl)-3-methylbutanoyl)-N-((S)-1-(4-(4-methylthiazol-5-yl)phenyl)ethyl)pyrrolidine-2-carboxamide] | A (“A” indicates maximum degradation ≥ 75%)
7 | > 1000 | < 50 |  | Cc1ncsc1-c1ccc([C@H](C)NC(=O)[C@@H]2C[C@@H](O)CN2C(=O)[C@@H](c2cc(N3C[C@@H]4C[C@H]3CN4C(=O)[C@H]3C[C@@]4(Cc5cc(-c6ccccc6O)nnc5N4)C3)no2)C(C)C)cc1 (racemic) [Compound 72, (2S,4R)-4-hydroxy-1-((R)-2-(3-((1S,4S)-5-((1S,3s)-3′-(2-hydroxyphenyl)-5′,7′-dihydrospiro[cyclobutane-1,6′-pyrrolo[2,3-c]pyridazine]-3-carbonyl)-2,5-diazabicyclo[2.2.1]heptan-2-yl)isoxazol-5-yl)-3-methylbutanoyl)-N-((S)-1-(4-(4-methylthiazol-5-yl)phenyl)ethyl)pyrrolidine-2-carboxamide] | B (“B” indicates maximum degradation ≥ 50%)
8 | > 10 | > 50 | > 100 | Cc1ncsc1-c1ccc([C@H](C)NC(=O)[C@@H]2C[C@@H](O)CN2C(=O)[C@@H](c2cc(C3CCN(C(=O)[C@H]4C[C@]5(Cc6cc(-c7ccccc7O)nnc6N5)C4)CC3)no2)C(C)C)cc1 (racemic) [Compound 75, (2S,4R)-4-hydroxy-1-((R)-2-(3-(1-((1S,3r)-3′-(2-hydroxyphenyl)-5′,7′-dihydrospiro[cyclobutane-1,6′-pyrrolo[2,3-c]pyridazine]-3-carbonyl)piperidin-4-yl)isoxazol-5-yl)-3-methylbutanoyl)-N-((S)-1-(4-(4-methylthiazol-5-yl)phenyl)ethyl)pyrrolidine-2-carboxamide] | A (“A” indicates maximum degradation ≥ 75%)
9 | > 100 | < 50 |  | Cc1ncsc1-c1ccc([C@H](C)NC(=O)[C@@H]2C[C@@H](O)CN2C(=O)[C@@H](c2cc(N3C[C@H]4C[C@@H]3CN4C(=O)[C@H]3C[C@]4(Cc5cc(-c6ccccc6O)nnc5N4)C3)no2)C(C)C)cc1 (racemic) [Compound 76, (2S,4R)-4-hydroxy-1-((R)-2-(3-((1R,4R)-5-((1S,3r)-3′-(2-hydroxyphenyl)-5′,7′-dihydrospiro[cyclobutane-1,6′-pyrrolo[2,3-c]pyridazine]-3-carbonyl)-2,5-diazabicyclo[2.2.1]heptan-2-yl)isoxazol-5-yl)-3-methylbutanoyl)-N-((S)-1-(4-(4-methylthiazol-5-yl)phenyl)ethyl)pyrrolidine-2-carboxamide] | A (“A” indicates maximum degradation ≥ 75%)
10 | > 100 | < 50 |  | Cc1ncsc1-c1ccc([C@H](C)NC(=O)[C@@H]2C[C@@H](O)CN2C(=O)[C@@H](c2cc(N3C[C@@H]4C[C@H]3CN4C(=O)[C@H]3C[C@]4(Cc5cc(-c6ccccc6O)nnc5N4)C3)no2)C(C)C)cc1 (racemic) [Compound 78, (2S,4R)-4-hydroxy-1-((R)-2-(3-((1S,4S)-5-((1R,3r)-3′-(2-hydroxyphenyl)-5′,7′-dihydrospiro[cyclobutane-1,6′-pyrrolo[2,3-c]pyridazine]-3-carbonyl)-2,5-diazabicyclo[2.2.1]heptan-2-yl)isoxazol-5-yl)-3-methylbutanoyl)-N-((S)-1-(4-(4-methylthiazol-5-yl)phenyl)ethyl)pyrrolidine-2-carboxamide] | A (“A” indicates maximum degradation ≥ 75%)
11 |  | < 50 |  | Cc1ncsc1-c1ccc([C@H](C)NC(=O)[C@@H]2C[C@@H](O)CN2C(=O)[C@@H](c2cc(N3C[C@H]4C[C@@H]3CN4C(=O)[C@H]3C[C@@]4(Cc5cc(-c6ccccc6O)nnc5N4)C3)no2)C(C)C)cc1 (racemic) [Compound 79, (2S,4R)-4-hydroxy-1-((R)-2-(3-((1R,4R)-5-((1R,3s)-3′-(2-hydroxyphenyl)-5′,7′-dihydrospiro[cyclobutane-1,6′-pyrrolo[2,3-c]pyridazine]-3-carbonyl)-2,5-diazabicyclo[2.2.1]heptan-2-yl)isoxazol-5-yl)-3-methylbutanoyl)-N-((S)-1-(4-(4-methylthiazol-5-yl)phenyl)ethyl)pyrrolidine-2-carboxamide] | C (“C” indicates maximum degradation < 50%)
